The values below are quoted from earlier work in patent US20230035389A1, “ANTIVIRAL COMPOSITION BASED ON EXTRACTS OF […] […] USEFUL FOR TREATING LESIONS CAUSED BY […] VIRUS” (PONTIFICIA UNIVERSIDAD CATOLICA DE CHILE, priority 2019, published 2023).

Each structure is given as a SMILES string.

This data set concerns herpes simplex virus. As to conditions: topical, background statement.

On to `Nc1nc2c(ncn2COCCO)c(=O)[nH]1` [Acyclovir], for which the “Reduction of the duration of herpetic lesions” value is 1.0 days.
